Results taken from patent US20080146555A1, “Uses of Kinase Inhibitors and Compositions Thereof” (GPC Biotech, Inc, priority 2004, published 2008).
Where “and” joins values, the source holds several entries; their conditions need not be identical. Equal entries are not always repeated. One block for each molecule: values may come before it.

Assays:
[1] = tested on: NCI panel of 60 cell lines; assay: cells; conditions: Homo sapiens, 60 cell, 48 h, read-out: NCI panel MG-MID (Mean-Graph Mid-point, average IC50 over panel), 48 h, SRB; IC50 <10 nM counted as 10 nM
From the text: (§1) The evaluation of compounds at the National Cancer Institute in their panel of 60 cell lines provides a wealth of information regarding efficacy in a wide range of tumor types and genetic backgrounds. Included within this panel are cell lines derived from leukemia, melanoma and cancers of the lung, colon, brain, ovary, breast, prostate and kidney. Use of this panel provides a measure of the efficacy of compounds in cells with alterations in many genes that are associated with neoplastic transformation including p53 and Her2/Neu as well as those involved in metabolism and those which confer multi-drug resistance. The data generated in these cell lines with the protocol described below can be used to evaluate the activity of compounds.
(§2) Cells were grown in RPMI-1640 10% FCS and plated in 96 well micro-titer plates at densities ranging from 5,000 to 40,000 cells/well. The plates were incubated for 24 hours at 37° C., 5% CO2 for 24 hours. Media containing twice the desired final concentration of the compound (5 doses spanning 4 logs) was prepared and 100 μl was added to each well containing 100 μl media plus cells to yield the desired final concentration. The plates were then incubated for an additional 48 hours.
(§3) The effect of the compound on cellular viability was determined with the Sulforhodamine B (SRB) assay, which measures total protein. Cells were fixed with cold TCA to a final concentration of 10% and incubated at 4° C. for 60 minutes. The supernatant was discarded and the plates were washed five times with water and air-dried. SRB solution at […] in 1% acetic acid was added to each well and the plates were incubated for 10 minutes at room temperature. The plates were washed five times with 1% acetic acid and air-dried. The bound stain was solubilized with 10 mM trizma base and the absorbance was read on a plate reader at […].

[2] = tested on: adriamycin resistant cell line (ADR-res); assay: NCI panel, adriamycin resistant cell line, SRB assay; assay type: cell-based; conditions: Homo sapiens, 48 h
From the text: as §1, §2, §3

HCT-116 cells [3] = assay: Clonogenic survival assay with HCT-116 cells; assay type: cell-based; conditions: Homo sapiens
Protocol: This assay was used to determine the concentration of a compound that results in irreversible loss of viability after a specified period of exposure. Essentially, cells are exposed to compound for a period of […], and are then transferred to compound-free growth medium. After continued incubation in the compound-free medium for a number of days, the number of colonies recovered is counted as an estimate of the number of surviving cells.
Media (RPMI-1640, 10% FCS, pen/strep) was pre-warmed to 37° C. in a water bath. Cells were incubated and grown at 37° C., 5% CO2. Cells were recovered by trypsinization from sub-confluent plates and counted using a hemocytometer. 1×10^4 cells were plated in 25 mls of media in a 15 cm tissue culture dish. […] were set up for each test compound, and were incubated overnight at 37° C. The compound was diluted into media at 7 concentrations and the media on the cells was replaced with that containing the test compound. Two plates were set up for each concentration of the compound to be tested, as well as two control plates without compound. Plates were incubated as above for […], media was removed and replaced with fresh media, and the plates were incubated an additional 7 days and washed with PBS. Colonies were stained with crystal violet solution (0.4% crystal violet, 20% ethanol) for 5 minutes, washed twice with distilled water, and counted.

HCT-116 cells [4] = assay: Calcein AM viability assay, HCT-116; assay type: cell-based; conditions: Homo sapiens
Outline: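 Cells (HCT-116 1,000, IMR90 4,000 per well) adhered overnight, then received 7 doses from 0 to 250 nM for 72 h at 37 °C. Viability read as calcein fluorescence after 75 min with Calcein AM; IC50 values, with protein-adjusted values also obtained in HCT-116.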

[5] = tested on: normal human fibroblast, IMR90; assay: Calcein AM viability assay, IMR90; assay type: cell-based; conditions: IMR-90, Calcein AM, 72 h
Protocol: The potency of the subject kinase inhibitors, as measured by loss of cellular viability, was determined with the Calcein AM assay (Molecular Probes). Calcein AM is a substrate of intracellular esterases, which is cleaved only in viable cells to generate a fluorescent product that can be quantified with a fluorescent plate reader. The fluorescent signal is proportional to the number of viable cells, and thus loss of signal in response to the exposure of cells to the subject kinase inhibitors correlates with a loss of viability. This assay not only distinguishes cell cycle arrest, in which cells may still by viable, from loss of viability, and is thus well suited for the evaluation of the subject kinase inhibitors. A compound that is a potent cytotoxic agent may cause significant loss of cell viability in such an assay.
Cellular IC50's were determined in the human colorectal carcinoma cell line, HCT-116, and the normal human fibroblast, IMR90. Protein adjusted IC50's were also determined in HCT-116. Results of such viability assays are presented in Table 2 (HCT-116 (viability/protein adjusted) and IMR-90). IC50's (μM, non-protein adjusted) for the viability assay against HCT-116 cells are shown for further compounds of the invention in Table 4.
HCT-116 or IMR90 cells were recovered from sub-confluent plates by trypsinization and 1,000 or 4,000 cells, respectively, were plated in 24-well dishes and incubated overnight at 37° C., 5% CO2. HCT-116 cells were cultured in RPMI-1640, 10% FCS, and IMR90 cells were cultured in Minimum Essential Medium-alpha, 10% FCS. After overnight incubation to allow adherence, the media was aspirated from each well and replaced with media containing a test compound at a concentration from 0 to 250 nM, spanning a total of 7 doses. The plates were returned to the incubator and cultured for an additional 72 hours (3 days). […] After 72-hours incubation with the test compound, the cells were washed twice with 1×PBS, taking special care to remove all residual buffer.
A 5 μM Calcein AM solution was prepared by dissolving a 50 μg aliquot of Calcein (Molecular Probes catalog #C3100) in 50 μl DMSO. After the Calcein had completely dissolved (10 minutes at room temperature), it was diluted into 10 ml PBS. Calcein/PBS (0.5 ml) was added to each well. The plates were incubated for 75 minutes at 37° C. (protected from light) and the fluorescent signal was read on a fluorescent plate reader (excitation 485/20 and emission 530/25).

[6] = target: protein kinase C (mixed isozymes); assay: Protein kinase C TCA precipitation assay; assay type: biochemical, rat; conditions: Table 3; read-out: PKC IC50
Protocol: Enzymes: Cdc2/cyclin B was obtained from commercial sources. Cdk2/his-cyclin Eshort was expressed in Sf9 cells. Cdk2/cyclin A, cdk4/cyclin D1, and cdk6/cyclin D2 were expressed in Sf9 cells. Protein kinase A (catalytic subunit, from bovine heart) and protein kinase C (mixed isozymes from rat brain) were obtained from commercial sources.
Protein kinase C and protein kinase A were assayed using a TCA precipitation assay with Histone H1 as a substrate. For protein kinase A, the final assay contained 50 mM Tris, 10 mM MgCl2, 1 mM dithiothreitol, pH 7.5, 12 μM adenosine triphosphate, 10% (v/v) dimethylsulfoxide (from compounds), 20 μg Histone H1, 2 μCi [γ-^32P] adenosine triphosphate, 0.2 U protein kinase A in a 100 μL assay. A protein kinase C assay contained 50 mM Tris, 10 mM MgCl2, 1 mM dithiothreitol, 0.8 mM CaCl2, pH 7.5, 5 μM adenosine triphosphate, 10% (v/v) dimethylsulfoxide (from compounds), 20 μg Histone H1, 2 μCi [γ-^32P] adenosine triphosphate, 0.01 U protein kinase C in a 50 μL assay. The assays were started by the addition of enzyme, allowed to react for 10 min at 30° C., and stopped by adding 0.4 volumes of 237 mM disodium ethylenediamine tetraacetate, 105 mM adenosine triphosphate, pH 8.0. […] The filters were washed ten times with 25% (w/v) trichloroacetic acid, and the amount of incorporated [^32P]phosphate was determined by adding 100 μl Microscint and scintillation counting.

CDKs = assay: Kinase panel, CDKs (average/range); assay type: biochemical; conditions: comparison drug; read-out: average IC50 for CDK1, CDK2, and CDK4
HT29 = assay: SRB cytotoxicity, HT29 parental cells; assay type: cell-based; conditions: Homo sapiens, HT-29, 72 h
Protocol: (§4) In these experiments, the P-glycoprotein expressing NCI-Adr resistant subline (Vickers et al., 1989. Mol Endocrinology 3 (1):157-164) was used. […] Briefly, cells were plated in 96 well dishes 24 hours prior to compound addition. Where noted, they were exposed to verapamil for 4 hours prior to compound addition and then throughout the treatment period (72 hours). The assay was terminated with the addition of cold TCA to a final concentration of 10% and the plates were incubated for one hour at 4° C. The plates were then washed 5 times with water and 100 μl of a Sulforhodamine B solution (4%) was added to each well. The plate was then incubated for 10 minutes at room temperature before removal of unbound dye by washing with 1% acetic acid.
(§5) The parental non-mutated cell line HT29 was used as a control.
(§6) Z. Cytotoxicity was measured using the SRB assay according to Shekan et al. as described above in Example 1A.

HT29/mit = assay: SRB cytotoxicity, mitoxanthrone resistant cells; assay type: cell-based, human
Protocol: as §4, with “acid. The bound dye was solubilized with 10 mM Trizma base and the absorbance read at OD570.” for “acid.”
as §5, §6

Structure (SMILES): CC(C)N1CCN(CCOc2ccc(-c3[nH]nc4c3C(=O)c3c(NC(=O)NN5CCOCC5)cccc3-4)cc2)CC1 [E]
IC50 [1]: < 100 nM
IC50 [2]: < 1000 nM
IC50 (HCT-116 cells [3]; 24 h exposure, read-out: HCT-116 IC50 Clonogenic 24 h): < 100 nM
IC50 (HCT-116 cells [3]; 72 h exposure, read-out: HCT-116 IC50 Clonogenic 72 h): < 100 nM
IC50 (HCT-116 cells [4]; HCT-116, 72 h, Calcein AM, 72 h, read-out: HCT-116 IC50 Viability): < 100 nM
IC50 (HCT-116 cells [4]; HCT-116, plus 1 mg/ml alpha acidic glycoprotein and 45 mg/ml human serum albumin, read-out: HCT-116 IC50 Protein adjusted): < 1000 nM
IC50 [5]: < 100 nM
IC50 [6]: < 10000 nM

IC50 (CDKs): ~650 nM and 650 nM
Structure (SMILES): CN1CC[C@H](c2c(O)cc(O)c3c(=O)cc(-c4ccccc4Cl)oc23)[C@H](O)C1 [Flavopiridol, reference compound]

Structure (SMILES): O=C1c2c(O)ccc(O)c2C(=O)c2c(NCCNCCO)ccc(NCCNCCO)c21 [Mitoxanthrone, reference compound]
IC50 (HT29): 1230 nM
RR (relative resistance) HT29/mit vs HT29 (HT29/mit): 153.1
IC50 (HT29/mit; Homo sapiens, HT-29, 72 h, SRB): 188000 nM
